This note sets out measurements from patent US11304974B2, “Nanosystems comprising silver and antibiotics and their use for the treatment of bacterial infections” (priority 2017, dated 2022).

Like-named read-outs stand apart in the source and are kept apart here.

Test [1] relates to Pseudomonas MexR Mutant (efflux pump over-expression). Description: Silver-antibiotics interaction study, MicroScan (Example 4). The class given is cell-based, Pseudomonas aeruginosa. To be noted: colloidal silver at ½ MIC. From the text:
(§1) For this, an automated equipment MicroScan AutoScan 4 (Siemens) was used, using Gram negative (Becman Coulter NM37) and Gram positive (Becman Coulter PM28) cards.

A further test has as its system E. coli BLEE +. Described as above. Type of test: cell-based, Escherichia coli. To be noted: subinhibitory colloidal silver (½ or 1/10 MIC). As for the experimental part: (§2) The effect of subinhibitory concentrations of colloidal silver (namely, ½ and 1/10 dilution of the MIC obtained in Example 3) in the presence of different types of antibiotics was tested.
as §1
(§3) Each of these broths served as inoculum for the cards with antibiotics (for each strain, thus 3 cards were prepared). • Incubating the plates with antibiotics (in presence and absence of silver) at 37° C. for 24 h. • Reading the cards by use of LabPro software, and interpretation of the obtained values of MIC (determine if the silver reduces the initial MCI of each antibiotic).

The test system of test [2] is Pseudomonas DacB Mutant (hiperproducing AMPC). The test is described as above. The class given is cell-based, Pseudomonas aeruginosa. The settings on record: subinhibitory colloidal silver (½ or 1/10 MIC). As for the experimental part:
as §2, §1, §3

In another test the test system is Klebsiella BLEE +. Described as above. The class given is cell-based, Klebsiella pneumoniae. The settings on record: subinhibitory colloidal silver (½ or 1/10 MIC). As for the experimental part: as §2, §1, §3
The test system of test [3] is S. aureus Sa-1 (strain 1). Description: Epsilometry E-test, absence and presence of silver (Example 5). Type of test: cell-based. To be noted: Staphylococcus aureus, strain 1 (S. aureus Sa-1). As for the experimental part: (§4) In order to evaluate the synergy of collargol-antibiotics an epsilometry E-test was carried out. Said test is based on the agar diffusion method and relates to using a strip with a predefined steady gradient of 15 concentrations of the antibiotic being tested. After strain growth, an elliptical inhibition halo, being the MIC the antibiotic concentration corresponding to the cutting point.
(§5) It was performed for the antibiotics vancomycin, linezolid and tedizolid, in absence and presence of silver (½ and 1/10 MIC).

The test system of test [4] is S. aureus Sa-10 (strain 9). Described as above. The class given is cell-based. To be noted: Staphylococcus aureus, strain 9 (S. aureus Sa-10). Here is the method: as §4, §5
Test [5] concerns S. aureus Sa-11 (strain 10). The test is described as above. Type of test: cell-based. The settings on record: Staphylococcus aureus, strain 10 (S. aureus Sa-11). As for the experimental part:
as §4, §5

Test [6] deals with S. aureus Sa-12 (strain 11). Described as above. The class given is cell-based. To be noted: Staphylococcus aureus, strain 11 (S. aureus Sa-12). As for the experimental part: as §4, §5
For test [7], the system named is S. aureus Sa-3 (strain 3). The description is as above. Type of test: cell-based. To be noted: Staphylococcus aureus, strain 3 (S. aureus Sa-3). As for the experimental part:
as §4, §5

In test [8] the test system is S. aureus Sa-9 (strain 8). The description is as above. Type of test: cell-based. The settings on record: Staphylococcus aureus, strain 8 (S. aureus Sa-9). As for the experimental part:
as §4, §5

Test [9] has as its system S. epidermidis Se-1 (strain 14). Described as above. The class given is cell-based. The settings on record: Staphylococcus epidermidis, strain 14 (S. epidermidis Se-1). Here is the method:
as §4, §5

Test [10] relates to S. aureus Sa-13 (strain 12). The test is described as above. The settings on record: Staphylococcus aureus, strain 12 (S. aureus Sa-13). Type of test: cell-based. Here is the method:
as §4, §5

In test [11] the test system is S.aureus ATCC 700698 Sa-SARM (strain 15). Described as above. The settings on record: Staphylococcus aureus, ATCC700698, strain 15 (S.aureus ATCC 700698, Sa-SARM). The class given is cell-based. As for the experimental part: as §4, §5
Setting [12] is: MH agar with 1/10 MIC of colargol, read-out: MIC (E-test) MH-1/10 MIC.
Where [13] appears, read: MH agar with ½ MIC of colargol, read-out: MIC (E-test) MH-½ MIC.
Setting [14] is: MH agar without silver, read-out: MIC (E-test) MH (without silver).

With `CO/N=C(\C(=O)N[C@@H]1C(=O)N2C(C(=O)O)=C(COC(C)=O)CS[C@H]12)c1csc(N)n1` [cefotaxime, Cefotaxime], in [1], the “Effect of silver on the strain's sensitivity to the antibiotic” value (“Effect of silver” below) is “improvement in the MIC”.
With Gentamicin, in the test on E. coli BLEE +, the “Effect of silver” value was “becomes sensitive”.
Consider `C[C@H]1[C@H](NC(=O)/C(=N\OC(C)(C)C(=O)O)c2csc(N)n2)C(=O)N1S(=O)(=O)O` [aztreonam, Aztreonam], for which the results for the “Effect of silver” value (in [2]; with Klebsiella BLEE +) were “change to sensitive” and “becomes sensitive”, respectively.
In the case of `CO/N=C(\C(=O)N[C@@H]1C(=O)N2C(C(=O)[O-])=C(C[N+]3(C)CCCC3)CS[C@H]12)c1csc(N)n1` [Cefepime], the “Effect of silver” value in test [2] is on record as “moderate effect improving the MIC values”.
On to Colistin, for which the “Effect of silver” value is recorded as “improvement in the MIC” in test [1] and “moderate effect improving the MIC values” in [2].
Regarding `C[C@@H]1O[C@@H]1P(=O)(O)O` [Fosfomicine, Fosfomycin], the “Effect of silver” value in [2] is listed as “change to sensitive”.
For `NC[C@H]1O[C@H](O[C@H]2[C@H](O)[C@@H](O[C@H]3O[C@H](CO)[C@@H](O)[C@H](N)[C@H]3O)[C@H](N)C[C@@H]2N)[C@H](N)C[C@@H]1O` [tobramycin, Tobramycin], in the test with E. coli BLEE +, the “Effect of silver” value was “becomes sensitive”.
For `Cn1nnc(-c2ccc(-c3ccc(N4C[C@H](CO)OC4=O)cc3F)cn2)n1` [Tedizolid], the MIC stood at 0.25 µg/mL in [3] (setting [12]); 0.19 µg/mL in test [3] (setting [13]); 0.19 µg/mL in [3] (setting [14]); 0.38 µg/mL in test [4] (setting [12]); 0.38 µg/mL in test [4] (setting [13]); 0.5 µg/mL in test [4] (setting [14]). The MIC in [5] (setting [13]) came to 0.25 µg/mL; in test [5] (setting [14]) it was 0.38 µg/mL; in test [6] (setting [13]), 0.25 µg/mL; in test [6] (setting [14]), 0.25 µg/mL; in [7] (setting [12]), 0.19 µg/mL; in [7] (setting [13]) it was 0.125 µg/mL. Besides, the MIC was 0.19 µg/mL in test [7] (setting [14]); 0.19 µg/mL in test [8] (setting [12]); 0.19 µg/mL in test [8] (setting [13]); 0.25 µg/mL in [8] (setting [14]); 0.38 µg/mL in test [9] (setting [12]); 0.25 µg/mL in test [9] (setting [13]). For the same compound, in test [9] (setting [14]), the MIC is 0.38 µg/mL.
As for `CC(=O)NC[C@H]1CN(c2ccc(N3CCOCC3)c(F)c2)C(=O)O1` [Linezolid], the MIC in test [4] (setting [12]) is 1 µg/mL; in test [4] (setting [13]) it was 0.75 µg/mL; in [4] (setting [14]), 0.75 µg/mL; in test [5] (setting [12]) it was 1.5 µg/mL; in test [5] (setting [13]), 1.5 µg/mL; in [5] (setting [14]), 1.5 µg/mL. Also, the MIC in [6] (setting [12]) came out at 0.5 µg/mL; in test [6] (setting [13]), 0.5 µg/mL; in test [6] (setting [14]), 1 µg/mL; in test [10] (setting [12]) it was 0.38 µg/mL; in test [10] (setting [13]), 0.5 µg/mL; in [10] (setting [14]), 0.5 µg/mL. Besides, the MIC in test [7] (setting [12]) is 1.5 µg/mL; in test [7] (setting [13]) it was 1 µg/mL; in test [7] (setting [14]), 1.5 µg/mL; in test [9] (setting [12]) it was 0.75 µg/mL; in test [9] (setting [13]), 0.5 µg/mL; in test [9] (setting [14]) it was 0.75 µg/mL. Besides, the MIC was 0.5 µg/mL in test [11] (setting [12]), 0.38 µg/mL in test [11] (setting [13]) and 0.5 µg/mL in [11] (setting [14]).
As to `CCN1CCN(C(=O)N[C@@H](C(=O)N[C@@H]2C(=O)N3[C@@H]2SC(C)(C)[C@@H]3C(=O)O)c2ccccc2)C(=O)C1=O` [Piperacillin], the “Effect of silver” value in test [2] was “moderate effect improving the MIC values”.
